Like-named read-outs stand apart in the source and are kept apart here.
Assays:
[1] = Plasma concentration upon oral administration to rats in the presence of CYP 3A4 inhibitor; type: in vivo; conditions: male SD rats, test compound 30 mg/kg orally, ketoconazole 50 mg/kg intraperitoneally one hour before
Method: Ketoconazole (50 mg/kg), a CYP 3A4 inhibitor, was intraperitoneally administered to male SD rats. One hour thereafter, 30 mg/kg of the test compound was orally administered. After 15, 30, 60, 120, 240 and 360 minutes from administration of the test compound, blood was collected from the rat jugular vein and centrifuged at 3,000 rpm for 10 minutes to give plasma. To 150 µL of the resulting plasma were added 5 ng of 2-[4-[4-(2-methoxyphenyl)-1-piperazinyl]butyl-amino]-5-ethoxycarbonyl-4,6-dimethylpyrimidine trihydrochloride, proteins were removed therefrom using ethanol and plasma concentration of the test compound was measured by high-performance liquid chromatography. From the concentration of the test compound in the resulting plasma, the area under curve of plasma concentration vs. time (AUC, µg•min/mL) was calculated.

CYP 3A4 = experiment: Metabolic reaction in pooled human liver microsome with or without the CYP 3A4 inhibitor ketoconazole; type: in vitro ADME; conditions: 1 µmol/L test compound, 37°C, after 60 minutes; for Residual rate (%) Ketoconazole (+): ketoconazole 1 µmol/L; for Residual rate (%) Ketoconazole (-): without ketoconazole
Text: Metabolic reaction of a test compound in pooled human liver microsome (Zenotec) in the presence of a specific inhibitor for each CYP molecular species was investigated and the CYP molecular species participating in the metabolism was estimated from the effect of each inhibitor.
The following inhibitors were used as the specific inhibitors for CYP molecular species:
A mixed solution containing 100 mmol/L of a phosphate buffer (pH 7.4), 0.05 mmol/L disodium ethylenediaminetetraacetate, 5 mmol /L magnesium chloride, 1 µmol/L of a test compound, 0.2 mg/L of human liver microsome (8 mg/L only for the measurement of a metabolism inhibiting rate by CYP 2C19) and each inhibitor (each of the numerals being the final concentration) was pre-incubated at 37°C, and then 2 mmol/L NADPH was added thereto to start the reaction. Immediately thereafter and after 60 minutes, 100 µL. of the sample was collected. The collected sample was immediately added to 2 mL of diethyl ether containing 400 µL of distilled water and 0.1 µg/L of an internal standard substance, followed by stirring, and the reaction was stopped. After a centrifugal treatment (2,000 rpm for 3 minutes), diethyl ether which was an upper layer was collected and dried in vacuo. The residue was dissolved in 150 µL of 0.01% TFA-80% acetonitrile and 40 µL thereof was subjected to a measurement. In this test, no quantitative determination was conducted but the residual rate to the concentration of the compound immediately after starting the reaction was determined from the area ratio in liquid chromatography/tandem mass analysis (LC/MS/MS) chromatogram.

Caco-2 cells = experiment: Permeability of Caco-2 in the presence of P-gp inhibitor; type: in vitro ADME; conditions: drug 10 µM
Method: Caco-2 cells were incubated in a 12-well transwell place on a collagen-coated porous polycarbonate membrane until arriving confluent to prepare a single-layer membrane of Caco-2 cells. The single-layer membrane was preincubated for 30 minutes in a buffer for the measurement (a Hanks buffer containing 10 mM HEPES and 15 mM glucose; pH 7.0 ± 0.2) to which d-α-tocopheryl polyethylene glycol 1000 succinate, a P-gp inhibitor, was added. The drug concentration was adjusted to 10 µM by a buffer for the measurement. In measuring the membrane permeability from lumen to blood vessel, the drug solution was loaded to the lumen while, in measuring the membrane permeability from blood vessel to lumen, it was loaded to the blood vessel and incubation was carried out under conditions at 37°C, 5% CO2 and relative humidity of 90%. After 1 and 2 hours from the administration of the drug, 200 µL of the buffer for the measurement containing the drug solution were recovered and substituted with a new buffer for the measurement. The measurement was carried out 2 times. Membrane permeability in a cell-free state was measured and used as a blank. As a control, permeability of Lucifer Yellow was measured. All samples were evaluated by LC/MS. A permeation coefficient (Papp) was calculated according to the following equation. Papp = (dc / dt) • Vr / (A • C0 ) [formula]
In the equation, dc/dt is a permeation rate after lag time; Vr is a volume of the solution at the side of a donor; A is a surface area; and C0 is the initial concentration of the solution at the side of the donor.

[2] = Plasma concentration after intravenous administration in rat in the presence of CYP 3A4 inhibitor; type: in vivo; conditions: male SD rats, test compound 3 mg/kg intravenously; for AUC increase in the presence of ketoconazole versus absence: ketoconazole 50 mg/kg intraperitoneally; for AUC at 4 h: rat, in vivo, iv, 3 mg/kg
Method: Ketoconazole (50 mg/kg), an inhibitor against CYP 3A4, was intraperitoneally administered to male SD rats. One hour thereafter, the test compound (3 mg/kg) was intravenously administered. After 2, 5, 15, 30, 60, 120 and 240 minutes from the administration of the test compound, blood was collected from the rat jugular vein and centrifuged at 3,000 rpm for 10 minutes to obtain plasma. To 150 µL of the resulting plasma were added 5 ng of 2-[4-[4-(2-methoxyphenyl)-1-piperazinyl]butylamino]-5-ethoxycarbonyl-4,6-dimethylpyrimidine trihydrochloride as an internal standard, proteins were removed therefrom using ethanol and a plasma concentration of the test compound was measured by high-performance liquid chromatography. From the resulting plasma concentration of the test compound, the area under the curve of plasma concentration vs. time (AUC, µg·min/mL) was calculated.

[3] = tested on: parent cells thereof (LLC-PK 1); experiment: Membrane permeability of parent cells; type: in vitro ADME; conditions: PK 1 cells, CsA (-), compound 10 µM
Method: (§1) Human MDR1 expressed cells (LLC-GA-5-COL 150) and parent cells thereof (LLC-PK 1) were incubated until arriving confluent in a 12-well transwell plate to prepare a single-layer membrane. Compound 75(54) was adjusted to 10 µM using a buffer for the measurement (M 199, 26.2 mM NaHCO3, 10% FBS, 0.03% L-glutamine; pH 7.4). In measuring the membrane permeability from lumen to blood vessel, the drug solution was loaded to the lumen while, in measuring the membrane permeability from blood vessel to lumen, it was loaded to the blood vessel and incubation was carried out under conditions at 37°C, 5% CO2 and relative humidity of 90%. After a certain period, the sample solution was collected and, in order to keep each volume, a buffer for the measurement was supplemented to an extent of the collected volume. Similarly, membrane permeability of Compound 75(54) was observed as well in the presence of cyclosporine A (abbreviated as CsA; final concentration: 10 µM) which is an inhibitor for P-gp. The measurement was carried out 3 times. All samples were evaluated by means of LS/MS/MS.

[4] = tested on: Human MDR1 expressed cells (LLC-GA-5-COL 150); experiment: Membrane permeability of P-gp expression cells; type: in vitro ADME; conditions: COL 150 cells, CsA (-), compound 10 µM
Method: as §1

[5] = Plasma concentration upon oral administration to rats in the presence of an HIV protease inhibitor; type: in vivo; conditions: male SD rats
Method: Amprenavir, nelfinavir, ritonavir or saquinavir (10 mg/kg) which is an HIV protease inhibitor and 10 mg/kg of the test compound were orally administered to male SD rats at the same time. After 15, 30, 60, 120, 240 and 360 minutes from the administration of the test compound, blood was collected from the rat jugular vein and centrifuged at 3,000 rpm for 10 minutes to give plasma. To 200 µL of the resulting plasma were added 50 ng of (3S)-1-butyl-2,5-dioxo-3-(2-methylpropyl)-9-)4-phenyloxyphenylmethyl)-1,4,9-triazaspiro[5.5]undecane as an internal standard. To this were added 300 µL of distilled water and 2,000 µL of diethyl ether, followed by well stirring, and the diethyl ether layer recovered therefrom was dried in vacuo. The dried substance was dissolved in 150 µL of a 50% acetonitrile solution containing 0.005% trifluoroacetic acid and subjected to a liquid chromatography/tandem mass analysis (LC/MS/MS) method to measure a plasma concentration of the test compound. From the concentration of the test compound in the resulting plasma, the area under curve of plasma concentration vs. time (AUC, µg·min/mL) was calculated.

Q: For CCCCN1C(=O)[C@@H]([C@H](O)C2CCCCC2)NC(=O)C12CCN(Cc1ccc(Oc3ccc(C(=O)O)cc3)cc1)CC2 [Compound 75(54), (3R)-1-butyl-2,5-dioxo-3-((1R)-1-hydroxy-1-cyclohexylmethyl)-9-(4-(4-carboxyphenyloxy)phenylmethyl)-1,4,9-triazaspiro[5.5]undecane], which “AUC increase in the presence of ketoconazole versus absence” value [1] is on record?
A: Its value is 10 times.

Q: And the “Residual rate (%) Ketoconazole (+)” value (CYP 3A4)?
A: The value was 95.3%.

Q: What about the “Residual rate (%) Ketoconazole (-)” value (CYP 3A4) of the same compound?
A: Its value is 34.4%.

Q: What about the “Permeation Coefficient From blood vessel to lumen” value (Caco-2 cells; Caco-2, 0.025% TPGS (+)) of the same compound?
A: Its value is 13 cm/s.

Q: What about the “Permeation Coefficient From lumen to blood vessel” value (Caco-2 cells; Caco-2, 0.025% TPGS (+)) of the same compound?
A: Its value is 10.5 cm/s.

Q: And the “Permeation Coefficient From blood vessel to lumen” value (Caco-2 cells; Caco-2, 0.025% TPGS (-))?
A: The value was 32.4 cm/s.

Q: What about the “Permeation Coefficient From lumen to blood vessel” value (Caco-2 cells; Caco-2, 0.025% TPGS (-)) of the same compound?
A: The value was 3.42 cm/s.

Q: And the “AUC increase in the presence of ketoconazole versus absence” value [2]?
A: Its value is “about 3 times”.

Q: What about the “Permeability From blood vessel to lumen” value [3] of the same compound?
A: The value was 18.8 µL/cm^2/hr.

Q: And the “Permeability From lumen to blood vessel” value [3]?
A: Its value is 35.3 µL/cm^2/hr.

Q: And the “Permeability From blood vessel to lumen” value [4]?
A: Its value is 34.3 µL/cm^2/hr.

Q: What about the “Permeability From lumen to blood vessel” value [4] of the same compound?
A: The value was 2.06 µL/cm^2/hr.

Q: And the “AUC increase in the presence of amprenavir versus absence” value ([5]; test compound 10 mg/kg and amprenavir 10 mg/kg orally at the same time)?
A: The value was 3.7 times.

Q: What about the “AUC increase in the presence of nelfinavir versus absence” value ([5]; test compound 10 mg/kg and nelfinavir 10 mg/kg orally at the same time) of the same compound?
A: The value was 3.4 times.

Q: What about the “AUC increase in the presence of ritonavir versus absence” value ([5]; test compound 10 mg/kg and ritonavir 10 mg/kg orally at the same time) of the same compound?
A: Its value is 7.7 times.

Q: And the “AUC increase in the presence of saquinavir versus absence” value ([5]; test compound 10 mg/kg and saquinavir 10 mg/kg orally at the same time)?
A: Its value is 1.7 times.

Q: For CCCCN1C(=O)[C@H](CC2CCCCC2)NC(=O)C12CCN(Cc1ccc(Oc3ccc(C(=O)O)cc3)cc1)CC2 [Compound 40(70), (3S)-1-butyl-2,5-dioxo-3-cyclohexylmethyl-9-(4-(4-carboxyphenyloxy)phenylmethyl)-1,4,9-triazaspiro[5.5]undecane], which “Residual rate (%) Ketoconazole (+)” value (CYP 3A4) is on record?
A: Its value is 104.0%.

Q: What about the “Residual rate (%) Ketoconazole (-)” value (CYP 3A4) of the same compound?
A: The value was 28.2%.

Q: With CCCCN1C(=O)[C@@H]([C@H](O)C2CCCCC2)NC(=O)C12CCN(Cc1c(C)nn(-c3ccc(C(=O)NC)cc3)c1C)CC2 [Compound 75(53), (3R)-1-butyl-2,5-dioxo-3-((1R)-1-hydroxy-1-cyctohexylmethyl)-9-(3,5-dimethyl-1-(4-methylaminocarbonylphenyl)pyrazol-4-ylmethyl)-1,4,9-triazaspiro[5.5]undecane] as the compound, how does the “Residual rate (%) Ketoconazole (+)” value (CYP 3A4) read?
A: Its value is 114.4%.

Q: What about the “Residual rate (%) Ketoconazole (-)” value (CYP 3A4) of the same compound?
A: Its value is 19.4%.

Q: With CCCCN1C(=O)C(CC(C)C)NC(=O)C12CCN(Cc1c(C)nn(-c3ccccc3)c1C)CC2 (stereo not shown) [Compound 3(1)] as the compound, how does the “Residual rate (%) Ketoconazole (+)” value (CYP 3A4) read?
A: Its value is 89.1%.

Q: What about the “Residual rate (%) Ketoconazole (-)” value (CYP 3A4) of the same compound?
A: Its value is 32.1%.

Q: What about the “AUC increase in the presence of ketoconazole versus absence” value [2] of the same compound?
A: Its value is “about 4 times”.

Q: And the AUC at 4 h ([2]; ketoconazole 50 mg/kg intraperitoneally one hour before, read-out: AUC in the presence of ketoconazole (converted))?
A: Its AUC at 4 h is 4350 ng·h/mL.

Q: What about the AUC at 4 h ([2]; no ketoconazole, read-out: AUC in the absence of ketoconazole (converted)) of the same compound?
A: Its AUC at 4 h is 1020 ng·h/mL.
